Assay results from US12098148B2, “Therapeutic compounds” (C4X Discovery Limited, priority 2018, dated 2024).
Read-outs that look alike come from different tables or passages of the source.

Tests used:
[1] = test system: NQO1 mRNA in BEAS-2B cells; experiment: Beas2B NQO1 mRNA cell based assay; set-up: species or system human; conditions: 24 h compound treatment, increase in NQO1 mRNA vs vehicle (0.1% DMSO), read-out: EC50
Summary of the method: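 BEAS-2B human bronchial epithelial cells exposed to compound for 24 h at 37 °C, 5% CO2. NQO1 mRNA measured by one-step TaqMan RT-qPCR on unpurified lysates, normalized to β-actin; relative expression by ΔΔCT method.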

[2] = molecular target: T1, human KEAP1 (N-term, residues 321-609) (Homo sapiens, UniProt Q14145);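 also: fluorescence polarization competition assay of Kelch domain binding to NRF2, 12-point 1:3 dilution series from 10 µM, read after 1 h at room temperature, floor 10 nM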
Protocol: (§1) Biological Assays KEAP1 Kelch Fluorescence Polarization (FP) Assay Method
(§2) Inhibition of the Kelch domain-NRF2 interaction was determined using a fluorescence polarization-based competition assay in a black 384-well microplate. Compounds were tested at a starting concentration of 10 μM serially diluted 1:3 to generate a 12-point dose response curve on the Biomek FX robot.
(§3) After 1 h at room temperature, fluorescence polarization (excitation 470 nm/emission 530 nm) was measured using an Envision plate reader. IC50 values were determined by fitting the data to a four parameter logistic fit using XLfit or XE Runner within ActivityBase.

[3] = molecular target: T1, human KEAP1 (N-term, residues 321-609); experiment: biochemical
Protocol: as §1, §2, §3

T1 sequence (Q14145 321-609): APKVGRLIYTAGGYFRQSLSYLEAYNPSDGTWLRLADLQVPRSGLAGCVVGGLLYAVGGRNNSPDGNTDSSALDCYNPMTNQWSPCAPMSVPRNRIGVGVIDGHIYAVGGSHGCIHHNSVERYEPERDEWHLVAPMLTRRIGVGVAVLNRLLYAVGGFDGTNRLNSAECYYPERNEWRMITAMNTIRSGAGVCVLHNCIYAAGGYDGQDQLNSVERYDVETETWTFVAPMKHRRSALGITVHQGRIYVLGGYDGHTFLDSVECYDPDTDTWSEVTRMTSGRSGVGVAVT

Compound | IC50 [2] | IC50 [3] | EC50 [1] | EC50 ([1]; Homo sapiens, BEAS-2B, 24 h)
C[C@]1(C(=O)O)CCCC[C@H]1C(=O)N1CCc2c(Cl)ccc(OCc3nnn(C4CC4)c3C(F)F)c2[C@H]1CN1CCCC1=O [Example 134, (1S,2R)-2-((S)-5-chloro-8-((1-cyclopropyl-5-(difluoromethyl)-1H-1,2,3-triazol-4-yl)methoxy)-1-((2-oxopyrrolidin-1-yl)methyl)-1,2,3,4-tetrahydroisoquinoline-2-carbonyl)-1-methylcyclohexane-1-carboxylic acid] | – | 8.2 nM | – | 2.2 nM
C[C@]1(C(=O)O)CCCC[C@H]1C(=O)N1CCc2c(Cl)ccc(OCc3noc4ccccc34)c2[C@H]1CN1CCCC1=O [Example 100, (1S,2R)-2-((S)-8-(benzo[d]isoxazol-3-ylmethoxy)-5-chloro-1-((2-oxopyrrolidin-1-yl)methyl)-1,2,3,4-tetrahydroisoquinoline-2-carbonyl)-1-methylcyclohexane-1-carboxylic acid] | – | 5.1 nM | – | 3.4 nM
Cc1cc(C(=O)N2CC[C@H](Oc3cccc4c3[C@@H](CN3C(=O)c5ccccc5C3=O)N(C(=O)[C@@H]3CCCC[C@@H]3C(=O)O)CC4)C2)no1 [Example 4, (1S,2R)-2-((S)-1-((1,3-Dioxoisoindolin-2-yl)methyl)-8-(((S)-1-(5-methylisoxazole-3-carbonyl)pyrrolidin-3-yl)oxy)-1,2,3,4-tetrahydroisoquinoline-2-carbonyl)cyclohexane-1-carboxylic acid] | – | 9 nM | – | 13 nM
Cn1nnc(COc2ccc(Cl)c3c2[C@@H](CN2CCCC2=O)N(C(=O)[C@@H]2CCCC[C@]2(C)C(=O)O)CC3)c1C1CC1 [Example 129, (1S,2R)-2-((S)-5-chloro-8-((5-cyclopropyl-1-methyl-1H-1,2,3-triazol-4-yl)methoxy)-1-((2-oxopyrrolidin-1-yl)methyl)-1,2,3,4-tetrahydroisoquinoline-2-carbonyl)-1-methylcyclohexane-1-carboxylic acid] | – | 5.5 nM | – | 0.95 nM

Continued, in another order:

IC50 [2] | IC50 [3] | Compound | EC50 [1] | EC50 ([1]; Homo sapiens, BEAS-2B, 24 h)
7.7 nM | – | (1S,2R)-2-((S)- 8-((1,5-bis (difluoromethyl)- 1H-1,2,3-triazol-4-yl) methoxy)-5-chloro-1- ((2-oxopyrrolidin-1- yl)methyl)-1,2,3,4- tetrahydroisoquinoline- 2-carbonyl)-1- methylcyclohexane- 1-carboxylic acid [Example 193] | 1.8 nM | –
5.7 nM | – | (1S,2R)-2-((S)-8- ((2,5-bis (difluoromethyl)-2H- 1,2,3-triazol-4-yl) methoxy)-5-chloro-1 ((2-oxopyrrolidin-1- yl)methyl)-1,2,3,4- tetrahydroisoquinoline- 2-carbonyl)-1- methylcyclohexane-1- carboxylic acid [Example 139] | 140 nM | –
